US20250108119A1, “NOVEL STEROID PAYLOADS, STEROID LINKERS, ADCs CONTAINING AND USE THEREOF” (IMMUNEXT, INC., priority 2021, published 2025)
Entries after “also recorded” stand apart in the source; their conditions may differ.

Assays:
human PBMC = assay: Cytokine production (IL-1β, IL-6) at 24 hr by human PBMC incubated with 1 ng/mL LPS; type: cell-based; conditions: free steroid payloads, serial dilutions, 1 ng/mL LPS, 24 hr
Description: (§1) FIG. 51: INX-SM-3, INX-SM-4, and INX-SM-1 inhibit IL-1β (left) and IL-6 (right) production. Cytokine levels were measured at 24 hr for human PBMCS incubated with 1 ng/mL LPS and serial dilutions (1000-1 nM) of steroid payloads, with the no treatment control plotted on the log-scale x-axis at <1 nM; n=1 donor, standard deviation plotted from technical duplicates.
as §1, with “52: INX-SM-1,” for “51:”, “INX-SM-4” for “INX-SM-4,”, “INX-SM-6” for “INX-SM-1”, “IL-1β” for “IL-1β (left) and IL-6 (right)”, “levels” for “levels were”, “ng/ml” for “ng/mL”
(§2) FIG. 53: INX-SM-9, INX-SM-31 and INX-SM-35 inhibit IL-1β (top) and IL-6 (bottom) production. Cytokine levels measured at 24 hr for human PBMCS incubated with 1 ng/mL LPS and serial dilutions (1000-0.2 nM) of steroid payloads, with the no treatment control plotted on the log-scale x-axis at <0.2 nM; n=2 donors-representative donor shown. Standard deviation plotted from technical duplicates.
as §2, with “54: INX-SM-32 inhibits” for “53: INX-SM-9, INX-SM-31 and INX-SM-35 inhibit”, “(500-1” for “(1000-0.2”, “<1” for “<0.2”, “n=2. Representative” for “n=2 donors-representative”
Cytokine levels measured at 24 hr for human PBMCS incubated with 1 ng/ml LPS and serial dilutions (1000-0.5 nM) of steroid payloads, with the no treatment control plotted on the log-scale x-axis at <0.5 nM; n=1 donor, standard deviation plotted from technical duplicates.
FIG. 56: INX-SM-2 and INX-SM-7 show inhibition in IL-1β. Average Cytokine levels measured at 24 hr for human PBMCS incubated with 1 ng/ml LPS and serial dilutions (1000-0.16 nM) of steroid payloads, with the no treatment control plotted on the log-scale x-axis at <0.16 nM; n=1, standard deviation plotted from technical duplicates. […]
Average cytokine levels measured at 24 hr for human PBMC incubated with 1 ng/ml LPS and serial dilutions (100-0.032 nM) of glucocorticoid payloads; n=1, mean of technical duplicates.
Average cytokine levels measured at 24 hr for human PBMC incubated with 1 ng/mL LPS and serial dilutions (1000-0.32 nM) of glucocorticoid payloads; n=1, mean of technical duplicates.
Cytokine levels measured at 24 hr for human PBMC incubated with 1 ng/mL LPS and serial dilutions (1000-0.5 nM) of steroid payloads, with the no treatment control plotted on the log-scale x-axis at <0.5 nM; n=1 donor, mean of technical duplicates plotted.
Average cytokine levels for A. hull-1β B. huIL-6 measured at 24 hr for human PBMC incubated with 1 ng/mL LPS and serial dilutions (1000-0.16 nM) of conjugated steroid linker payloads, with the no treatment control plotted on the log-scale x-axis at <0.16 nM; n=1, standard deviation plotted from technical duplicates. Values above the ULOQ (12,500 pg/mL for IL-1b and 150,000 pg/mL for IL-6) were plotted as the extrapolated value.
Average cytokine levels for IL-1β measured at 24 hr for human PBMC incubated with 1 ng/mL LPS and serial dilutions (1000-0.16 nM) of conjugated steroid linker payloads, with the no treatment control plotted on the log-scale x-axis at <0.16 nM; n=1, mean plotted of technical duplicates
Average cytokine levels for IL-1β measured at 24 hr for human PBMC incubated with 1 ng/mL LPS and serial dilutions (1000-0.16 nM) of conjugated steroid linker payloads, with the no treatment control plotted on the log-scale x-axis at <0.16 nM; n=1, mean plotted of technical duplicates.
FIG. 66: Analogs of INX V are potent relative to INX231J. […]

[1] = tested on: LPS stimulated human PBMCs; assay: LPS stimulated human PBMC, IL-1β and IL-6 ELISA; type: cell-based
Description: The potency of novel steroids was assessed in a model of LPS stimulated human peripheral blood mononuclear cells (PBMCS). Stimulated PBMCs in this assay produce multiple pro-inflammatory cytokines1.
In all the following experiments, human PBMC, isolated from 1-2 healthy donors per study, were stimulated with LPS to induce cytokine production.
LPS was added either immediately after addition of free payload, or in the case of conjugates, four hours after addition of the conjugate.
Cells were plated in flat bottom 96 well plates at a final concentration of 150,000 cells/well, with technical duplicates for each condition.
Test agents were serially diluted in the assay media and added to a final concentration of 1,000 nM-1 nM or 0.2 nM depending on the assay or as a no treatment control.
LPS stimulation was added to a final concentration of 1 ng/ml.
Human IL-1β and IL-6 ELISA kits were used on supernatants according to vendor protocols. All graphs were prepared with GraphPad (Prism).

SMILES	inhibition of IL-1β production (human PBMC)	inhibition of IL-1β production ([1]; Experiment 8: free payload 1000-0.5 nM)	inhibition of IL-6 production (human PBMC)	potency of free payloads (conclusions) [1]	inhibition of IL-1β production ([1]; Experiment 3: free payload 1000-0.2 nM, 24 hr, n=2 donors)	inhibition of IL-1β and IL-6 production ([1]; Experiment 4: free payload 500-1 nM, 24 hr, n=2)	inhibition of IL-1β and IL-6 production ([1]; Experiment 5: free payload 1000-0.5 nM, 24 hr)	inhibition of IL-1β and IL-6 ([1]; Experiment 12: free payloads 1000-0.15 nM)
C[C@]12C=CC(=O)C=C1[C@@H](F)C[C@H]1[C@@H]3C[C@H]4O[C@@H](c5ccc(CC6CC7(CC(N)C7)C6)cc5)O[C@@]4(C(=O)CO)[C@@]3(C)C[C@H](O)[C@@]12F (stereo partly drawn) [INX-SM-25, (2S,6aS,6bR,7S,8aS,8bS,10R,11aR,12aS,12bS)-10-(4-((6-aminospiro[3.3]heptan-2-yl)methyl)phenyl)-2,6b-difluoro-7-hydroxy-8b-(2-hydroxyacetyl)-6a,8a-dimethyl-1,2,6a,6b,7,8,8a,8b,11a,12,12a,12b-dodecahydro-4H-naphtho[2′,1′:4,5]indeno[1,2-d][1,3]dioxol-4-one]	robust inhibition	robust inhibition in IL-1B production						
C[C@]12C=CC(=O)C=C1CC[C@@H]1[C@@H]2[C@@H](O)C[C@@]2(C)[C@H]1C[C@H]1O[C@@H](c3ccc(CC4COC5(CNC5)C4)cc3)O[C@]12C(=O)CO (stereo partly drawn) [INX-SM-31, (6aR,6bS,7S,8aS,8bS,11aR,12aS,12bS)-10-(4-((5-oxa-2-azaspiro[3.4]octan-7-yl)methyl)phenyl)-7-hydroxy-8b-(2-hydroxyacetyl)-6a,8a-dimethyl-1,2,6a,6b,7,8,8a,8b,11a,12,12a,12b-dodecahydro-4H-naphtho[2′,1′:4,5]indeno[1,2-d][1,3]dioxol-4-one]	inhibit		inhibit	lowest potency among the R stereoisomers of the series	dose dependent inhibition in IL-1β production; also recorded: the least potent compound among these compounds tested			
C[C@]12C=CC(=O)C=C1CC[C@@H]1[C@@H]2[C@@H](O)C[C@@]2(C)[C@H]1C[C@H]1O[C@@H](c3ccc(CC4CC5(CC(N)C5)C4)cc3)O[C@]12C(=O)CO (stereo partly drawn) [INX-SM-32, (6aR,6bS,7S,8aS,8bS,10R,11aR,12aS,12bS)-10-(4-((6-aminospiro[3.3]heptan-2-yl)methyl)phenyl)-7-hydroxy-8b-(2-hydroxyacetyl)-6a,8a-dimethyl-1,2,6a,6b,7,8,8a,8b,11a,12,12a,12b-dodecahydro-4H-naphtho[2′,1′:4,5]indeno[1,2-d][1,3]dioxol-4-one]	inhibits		inhibits			dose dependent inhibition in IL-1β and IL-6 production		
C[C@]12C=CC(=O)C=C1CC[C@@H]1[C@@H]2[C@@H](O)C[C@@]2(C)[C@H]1C[C@H]1O[C@@H](c3ccc(CC4(N)COC4)cc3)O[C@]12C(=O)CO [INX-SM-33, (6aR,6bS,7S,8aS,8bS,10R,11aR,12aS,12bS)-10-(4-((3-aminooxetan-3-yl)methyl)phenyl)-7-hydroxy-8b-(2-hydroxyacetyl)-6a,8a-dimethyl-1,2,6a,6b,7,8,8a,8b,11a,12,12a,12b-dodeca hydro-4H-naphtho[2′,1′:4,5]indeno[1,2-d][1,3]dioxol-4-one]	modest inhibition		modest inhibition	lowest potency among the R stereoisomers of the series			modest inhibition of cytokine production	
C[C@]12C=CC(=O)C=C1CC[C@@H]1[C@@H]2[C@@H](O)C[C@@]2(C)[C@H]1C[C@H]1CN(c3ccc(CC45CC(N)(C4)C5)cc3)C[C@]12C(=O)CO [INX-SM-34, (6aR,6bS,7S,8aS,8bS,11aR,12aS,12bS)-10-(4-((3-aminobicyclo[1.1.1]pentan-1-yl)methyl)phenyl)-7-hydroxy-8b-(2-hydroxyacetyl)-6a,8a-dimethyl-1,6a,6b,7,8,8a,8b,9,10,11,11a,12,12a,12b-tetradecahydronaphtho[2′,1′:4,5]indeno[1,2-c]pyrrol-4 (2H)-one 2,2,2-trifluoroacetate]	weakly inhibit		weakly inhibit					weakly inhibit IL-1β and IL-6
